From US20240109937A1, “BINDING PEPTIDES AND USES THEREOF” (The Johns Hopkins University, priority 2021, published 2024)

Key:
HT-22 cells = conditions: cited from earlier work
PPIA = PPIA (Homo sapiens, UniProt P62937); conditions: read-out: KD, affinity to PPIA-binding; cited from earlier work
Dsg2^mut/mut ES-CMs = test: FACS analysis of apoptosis (AnnexinV/propidium iodide) in ISO/Ca2+-treated ES-CMs; assay type: cell-based, mouse; conditions: 7 days, 5 μM or 25 μM peptide
Procedure: Mouse embryonic stem cells (ESs) were maintained and differentiated, and the absence of mycoplasma contamination was confirmed prior to experimental studies. Briefly, mouse ESs from both WT and Dsg2^mut/mut mice were derived from E3.5 embryos and maintained on gelatin-coated dishes in maintenance medium (Glasgow minimum essential medium supplemented with 10% fetal bovine serum and 3 μM Chir99021 and 1 μM PD98059 or 1000 U/ml ESGRO; Millipore), Glutamax, sodium pyruvate, and MEM non-essential amino acids (Thermo Fisher Scientific). For cardiomyocyte (CM) differentiation, ESs were plated in IMDM/Ham's F12 (Cellgro, at 3:1) supplemented with N2, B27, penicillin/streptomycin, 2 mM GlutaMAX, 0.05% BSA, 5 ng/ml L-ascorbic acid (Sigma-Aldrich), and α-monothioglycerol (MTG; Sigma-Aldrich) at a final density of 100,000 cells/ml to allow spheroid formation. After 48 hours, embryoid bodies were collected and transferred to ultra-low attachment plastic surface and induced for 40 hours with Activin A and Bmp4 (R&D Systems). Cells were then dissociated and plated as monolayers for 48 hours in the presence of 10 μM XAV to allow cardiomyocyte differentiation. […] (4) After 7 days of treatment, ES-CMs were stained with AnnexinV in a buffer containing 10 mM HEPES (pH 7.4), 140 mM NaCl, 2.5 mM CaCl2, followed by the addition of 1 mg/ml propidium iodide and analyzed by flow cytometry.

tAIF = test: Nuclear import and localization of tAIF in ISO/Ca2+-treated ES-CMs; assay type: cell-based, mouse; conditions: ISO/Ca2+-treated Dsg2^mut/mut ES-CMs, 7 days
Procedure: Mouse embryonic stem cells (ESs) were maintained and differentiated, and the absence of mycoplasma contamination was confirmed prior to experimental studies. Briefly, mouse ESs from both WT and Dsg2^mut/mut mice were derived from E3.5 embryos and maintained on gelatin-coated dishes in maintenance medium (Glasgow minimum essential medium supplemented with 10% fetal bovine serum and 3 μM Chir99021 and 1 μM PD98059 or 1000 U/ml ESGRO; Millipore), Glutamax, sodium pyruvate, and MEM non-essential amino acids (Thermo Fisher Scientific). […]
All myocardium (sedentary and exercised mouse cohorts and patient myocardial biopsies) were formalin-fixed and paraffin-embedded (FFPE). […] Following three additional washes, ProLong Gold Antifade Mountant with DAPI (Thermofisher, 936931) were applied, and slides were coverslipped, and immunoreactive signal was detected via laser scanning microscopy (Zeiss LSM 510 Meta). […]
Following immunostaining, AIF-fluorescence and nuclear fluorescence (DAPI) were detected via laser scanning microscopy (Zeiss LSM 510 Meta) via a sequential fashion to avoid crosstalk between fluorophores. Merged images were obtained using Zeiss LSM software, and approximately 3-10 Regions of Interest (ROIs) were assessed per condition (mouse myocardium and patient myocardial biopsies). […]

HMGB1 = HMGB1 cytosolic/nuclear levels in ISO/Ca2+-treated ES-CMs; assay type: cell-based, mouse; conditions: ISO/Ca2+-treated Dsg2^mut/mut ES-CMs, 7 days, peptide
Procedure: Mouse embryonic stem cells (ESs) were maintained and differentiated, and the absence of mycoplasma contamination was confirmed prior to experimental studies. Briefly, mouse ESs from both WT and Dsg2^mut/mut mice were derived from E3.5 embryos and maintained on gelatin-coated dishes in maintenance medium (Glasgow minimum essential medium supplemented with 10% fetal bovine serum and 3 μM Chir99021 and 1 μM PD98059 or 1000 U/ml ESGRO; Millipore), Glutamax, sodium pyruvate, and MEM non-essential amino acids (Thermo Fisher Scientific). For cardiomyocyte (CM) differentiation, ESs were plated in IMDM/Ham's F12 (Cellgro, at 3:1) supplemented with N2, B27, penicillin/streptomycin, 2 mM GlutaMAX, 0.05% BSA, 5 ng/ml L-ascorbic acid (Sigma-Aldrich), and α-monothioglycerol (MTG; Sigma-Aldrich) at a final density of 100,000 cells/ml to allow spheroid formation. After 48 hours, embryoid bodies were collected and transferred to ultra-low attachment plastic surface and induced for 40 hours with Activin A and Bmp4 (R&D Systems). Cells were then dissociated and plated as monolayers for 48 hours in the presence of 10 μM XAV to allow cardiomyocyte differentiation. The resulting ES-CMs were cultured 45 days before experimental procedures were performed. […]

Sequence of PPIA (P62937 whole entry, species assumed): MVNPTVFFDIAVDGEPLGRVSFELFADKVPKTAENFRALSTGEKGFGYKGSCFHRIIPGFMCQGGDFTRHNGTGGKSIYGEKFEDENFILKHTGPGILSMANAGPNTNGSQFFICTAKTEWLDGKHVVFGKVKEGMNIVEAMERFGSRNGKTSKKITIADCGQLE

Substance | neuroprotective effects in HT-22 cells during the oxidative stress (HT-22 cells) | Kd (PPIA) | apoptosis (FACS) (Dsg2^mut/mut ES-CMs) | PPIA-mediated nuclear import of tAIF (immunoblot) (tAIF) | tAIF nuclear localization (immunostaining) (tAIF) | increased cytosolic and decreased nuclear HMGB1 levels (HMGB1)
Ac-CIKLKDGRKVC-NH2 [AIF (381-389) ox, Cyclic peptide, 11 amino acids long] | provides neuroprotective |  |  |  |  | 
NH2-GRKKRRQRRR(βAla)QSVGVSSGKLLIKLKDGRKVETDHI-NH2 (GRKKRRQRRRAQSVGVSSGKLLIKLKDGRKVETDHI; C-terminal amide; MOD_RES (11)..(11) 1,2-dihydro-3(6h)-pyridinone beta-alanine) [TAT-AIF (370-394), Linear peptide, 38 amino acids long, N-terminal TAT fragment for cell uptake] |  | 12 µM | attenuated | precluded | precluded | prevented
